Laboratory results reported in patent US11377425B1, “Small molecule modulators of IL-17” (LEO Pharma A/S, priority 2018, dated 2022).

Biological target: T1, human IL-17AA (Homo sapiens, UniProt Q16552)
T1 construct: host or cells: HEK (human embryonic kidney) cells
T1 sequence (Q16552 24-155): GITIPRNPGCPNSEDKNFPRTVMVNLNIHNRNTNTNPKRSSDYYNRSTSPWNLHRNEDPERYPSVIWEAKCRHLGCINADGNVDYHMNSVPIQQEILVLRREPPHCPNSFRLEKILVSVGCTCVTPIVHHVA
Experiment: IL-8 release assay in human epithelial keratinocytes adult (HEKa)
Format: cell-based
Conditions: HEKa cells, 3 ng/mL HEK-human IL-17AA + 10 ng/mL human TNFalpha; read-out: Rel EC50 IL-8 release assay
Summary of the method: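 IL-8 release, quantified by HTRF and normalized to controls, reports IL-17 signaling in HEKa cells treated with compound plus final 3 ng/mL IL-17AA (HEK-derived) and 10 ng/mL TNF-alpha for 68-72 h; TNF-alpha-only wells set 100% inhibition. Four-parameter logistic fits (r^2>0.9) give relative IC50 and Emax; PrestoBlue flags cytotoxicity.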

SMILES	EC50
Cc1n[nH]c(C)c1-c1ccc(NC(=O)[C@@H](NC(=O)c2ccnn2CC(C)(F)F)C(C2CC2)C2CC2)cc1 [Example 186, N-[(1S)-1-(dicyclopropylmethyl)-2-[4-(3,5-dimethyl-1H-pyrazol-4-yl)anilino]-2-oxo-ethyl]-2-(2,2-difluoropropyl)pyrazole-3-carboxamide]	< 100 nM
Cc1n[nH]c(C)c1-c1ccc(NC(=O)[C@@H](NC(=O)c2ccnn2C(C)C(F)F)C(C2CC2)C2CC2)cc1 (stereo partly drawn) [Example 189, N-[(1S)-1-(dicyclopropylmethyl)-2-[4-(3,5-dimethyl-1H-pyrazol-4-yl)anilino]-2-oxo-ethyl]-2-(2,2-difluoro-1-methyl-ethyl)pyrazole-3-carboxamide]	< 100 nM
Cc1n[nH]c(C)c1-c1ccc(NC(=O)[C@@H](NC(=O)c2ccn(C)n2)C(C2CC2)C2CC2)cc1 [Example 198, N-[(1S)-1-(dicyclopropylmethyl)-2-[4-(3,5-dimethyl-1H-pyrazol-4-yl)anilino]-2-oxo-ethyl]-1-methyl-pyrazole-3-carboxamide]	> 1000 nM
CCn1ccc(C(=O)N[C@H](C(=O)Nc2ccc(-c3c(C)n[nH]c3C)cc2)C(C2CC2)C2CC2)n1 [Example 199, N-[(1S)-1-(dicyclopropylmethyl)-2-[4-(3,5-dimethyl-1H-pyrazol-4-yl)anilino]-2-oxo-ethyl]-1-ethyl-pyrazole-3-carboxamide]	> 1000 nM
COCCn1nccc1C(=O)N[C@H](C(=O)Nc1ccc(-c2c(C)n[nH]c2C)cc1)C(C1CC1)C1CC1 [Example 206, N-[(1S)-1-(dicyclopropylmethyl)-2-[4-(3,5-dimethyl-1H-pyrazol-4-yl)anilino]-2-oxo-ethyl]-2-(2-methoxyethyl)pyrazole-3-carboxamide]	< 100 nM
Cc1n[nH]c(C)c1-c1ccc(NC(=O)[C@@H](NC(=O)c2ccnn2CC#N)C(C2CC2)C2CC2)cc1 [Example 207, 2-(cyanomethyl)-N-[(1S)-1-(dicyclopropylmethyl)-2-[4-(3,5-dimethyl-1H-pyrazol-4-yl)anilino]-2-oxo-ethyl]pyrazole-3-carboxamide]	100 to 1000 nM
Cc1n[nH]c(C)c1-c1ccc(NC(=O)[C@@H](NC(=O)c2ccnn2CCCO)[C@@H]2CC(C)(C)CCC2(F)F)cc1 [Example 209, N-[(1S)-1-[(1S)-2,2-difluoro-5,5-dimethyl-cyclohexyl]-2-[4-(3,5-dimethyl-1H-pyrazol-4-yl)anilino]-2-oxo-ethyl]-2-(3-hydroxypropyl)pyrazole-3-carboxamide]	< 100 nM
Cc1n[nH]c(C)c1-c1ccc(NC(=O)[C@@H](NC(=O)c2ccnn2C(C)C)[C@@H]2CC(C)(C)CCC2(F)F)cc1 [Example 212, N-[(1S)-1-[(1S)-2,2-difluoro-5,5-dimethyl-cyclohexyl]-2-[4-(3,5-dimethyl-1H-pyrazol-4-yl)anilino]-2-oxo-ethyl]-2-isopropyl-pyrazole-3-carboxamide]	< 100 nM
CCn1nccc1C(=O)N[C@H](C(=O)Nc1ccc(-c2c(C)n[nH]c2C)cc1)[C@@H]1CC(C)(C)CCC1(F)F [Example 213, N-[(1S)-1-[(1S)-2,2-difluoro-5,5-dimethyl-cyclohexyl]-2-[4-(3,5-dimethyl-1H-pyrazol-4-yl)anilino]-2-oxo-ethyl]-2-ethyl-pyrazole-3-carboxamide]	< 100 nM
Cc1n[nH]c(C)c1-c1ccc(NC(=O)[C@@H](NC(=O)c2ccnn2CCC(F)F)C(C2CC2)C2CC2)cc1 [Example 215, N-[(1S)-1-(dicyclopropylmethyl)-2-[4-(3,5-dimethyl-1H-pyrazol-4-yl)anilino]-2-oxo-ethyl]-2-(3,3-difluoropropyl)pyrazole-3-carboxamide]	< 100 nM
Cc1n[nH]c(C)c1-c1ccc(NC(=O)[C@@H](NC(=O)c2ccn[nH]2)C(C2CC2)C2CC2)cc1 [Example 216, N-[(1S)-1-(dicyclopropylmethyl)-2-[4-(3,5-dimethyl-1H-pyrazol-4-yl)anilino]-2-oxo-ethyl]-1H-pyrazole-5-carboxamide]	100 to 1000 nM
Cc1n[nH]c(C)c1-c1ccc(NC(=O)[C@@H](NC(=O)c2ccnn2C(CF)CF)C(C2CC2)C2CC2)cc1 [Example 217]	< 100 nM
Cc1n[nH]c(C)c1-c1ccc(NC(=O)[C@@H](NC(=O)c2ccnn2C(C)CF)C(C2CC2)C2CC2)cc1 (stereo partly drawn) [Example 218, N-[(1S)-1-(dicyclopropylmethyl)-2-[4-(3,5-dimethyl-1H-pyrazol-4-yl)anilino]-2-oxo-ethyl]-2-(2-fluoro-methyl-ethyl)pyrazole-3-carboxamide]	< 100 nM
Cc1n[nH]c(C)c1-c1ccc(NC(=O)[C@@H](NC(=O)c2ccnn2C2CCOC2)C(C2CC2)C2CC2)cc1 (stereo partly drawn) [Example 219, N-[(1S)-1-(dicyclopropylmethyl)-2-[4-(3,5-dimethyl-1H-pyrazol-4-yl)anilino]-2-oxo-ethyl]-2-tetrahydrofuran-3-yl-pyrazole-3-carboxamide]	< 100 nM

Now from value to compound:

EC50	SMILES
100 to 1000 nM	Cc1n[nH]c(C)c1-c1ccc(NC(=O)[C@@H](NC(=O)c2ccnn2C)C(C)C(C)C)cc1 (some centres unmarked) [Example 197]
< 100 nM	Cc1n[nH]c(C)c1-c1ccc(NC(=O)[C@@H](NC(=O)c2ccnn2C(C)C)C2C3CC4CC(C3)CC2C4)cc1 (stereo partly drawn) [Example 200, N-[(1S)-1-(2-adamantyl)-2-[4-(3,5-dimethyl-1H-pyrazol-4-yl)anilino]-2-oxo-ethyl]-2-isopropyl-pyrazole-3-carboxamide]
< 100 nM	CCn1nccc1C(=O)N[C@H](C(=O)Nc1ccc(-c2c(C)n[nH]c2C)cc1)C1C2CC3CC(C2)CC1C3 (stereo partly drawn) [Example 201, N-[(1S)-1-(2-adamantyl)-2-[4-(3,5-dimethyl-1H-pyrazol-4-yl)anilino]-2-oxo-ethyl]-2-ethyl-pyrazole-3-carboxamide]
< 100 nM	Cc1n[nH]c(C)c1-c1ccc(NC(=O)[C@@H](NC(=O)c2ccnn2C)C2C3CC4CC(C3)CC2C4)cc1 (stereo partly drawn) [Example 202, N-[(1S)-1-(2-adamantyl)-2-[4-(3,5-dimethyl-1H-pyrazol-4-yl)anilino]-2-oxo-ethyl]-2-methyl-pyrazole-3-carboxamide]
< 100 nM	Cc1n[nH]c(C)c1-c1ccc(NC(=O)[C@@H](NC(=O)c2ccnn2CCC(C)O)[C@H]2CC[C@H](C)CC2)cc1 (stereo partly drawn) [Example 203, N-[(1S)-2-[4-(3,5-dimethyl-1H-pyrazol-4-yl)anilino]-1-(trans-4-methylcyclohexyl)-2-oxo-ethyl]-2-(3-hydroxybutyl)pyrazole-3-carboxamide]
< 100 nM	Cc1n[nH]c(C)c1-c1ccc(NC(=O)[C@@H](NC(=O)c2ccnn2CCCO)[C@H]2CC[C@H](C)CC2)cc1 [Example 208, N-[(1S)-2-[4-(3,5-dimethyl-1H-pyrazol-4-yl)anilino]-1-(trans-4-methylcyclohexyl)-2-oxo-ethyl]-2-(3-hydroxypropyl)pyrazole-3-carboxamide]
< 100 nM	Cc1n[nH]c(C)c1-c1ccc(NC(=O)[C@@H](NC(=O)c2ccnn2C)[C@@H]2CC(C)(C)CCC2(F)F)cc1 [Example 214, N-[(1S)-1-[(1S)-2,2-difluoro-5,5-dimethyl-cyclohexyl]-2-[4-(3,5-dimethyl-1H-pyrazol-4-yl)anilino]-2-oxo-ethyl]-2-methyl-pyrazole-3-carboxamide]
< 100 nM	Cc1n[nH]c(C)c1-c1ccc(NC(=O)[C@@H](NC(=O)c2ccnn2C)C(C)C2CCCCC2)cc1 (stereo partly drawn) [Example 220, N-[(1S)-2-cyclohexyl-1-[[4-(3,5-dimethyl-1H-pyrazol-4-yl)phenyl]carbamoyl]propyl]-2-methyl-pyrazole-3-carboxamide]
< 100 nM	Cc1n[nH]c(C)c1-c1ccc(NC(=O)[C@@H](NC(=O)c2ccnn2C(C)C2CC2)C(C2CC2)C2CC2)cc1 (stereo partly drawn) [Example 222, 2-(1-cyclopropylethyl)-N-[(1S)-1-(dicyclopropylmethyl)-2-[4-(3,5-dimethyl-1H-pyrazol-4-yl)anilino]-2-oxo-ethyl]pyrazole-3-carboxamide]
> 1000 nM	Cc1n[nH]c(C)c1-c1ccc(NC(=O)[C@H](CC2CCC2)NC(=O)c2ccnn2C)cc1 [Example 229, N-[(1S)-1-(cyclobutylmethyl)-2-[4-(3,5-dimethyl-1H-pyrazol-4-yl)anilino]-2-oxo-ethyl]-2-methyl-pyrazole-3-carboxamide]
< 100 nM	Cc1n[nH]c(C)c1-c1ccc(NC(=O)[C@@H](NC(=O)c2ccnn2C)C2CCCCC2(C)C)cc1 (stereo partly drawn) [Example 230, N-[(1S)-1-(2,2-dimethylcyclohexyl)-2-[4-(3,5-dimethyl-1H-pyrazol-4-yl)anilino]-2-oxo-ethyl]-2-methyl-pyrazole-3-carboxamide]
< 100 nM	Cc1n[nH]c(C)c1-c1ccc(NC(=O)[C@@H](NC(=O)c2ccnn2C)C2CCCC2(C)C)cc1 (stereo partly drawn) [Example 231, N-[(1S)-1-(2,2-dimethylcyclopentyl)-2-[4-(3,5-dimethyl-1H-pyrazol-4-yl)anilino]-2-oxo-ethyl]-2-methyl-pyrazole-3-carboxamide]
100 to 1000 nM	Cc1n[nH]c(C)c1-c1ccc(NC(=O)C(NC(=O)c2ccnn2C)C2CC3CC3C2)cc1 [Example 233, N-[(1S)-1-[(1R,55)-3-bicyclo[3.1.0]2-[4-(3,5-dimethyl-1H-pyrazol-4-yl)anilino]-2-oxo-ethyl]-2-methyl-pyrazole-3-carboxamide]
100 to 1000 nM	Cc1n[nH]c(C)c1-c1ccc(NC(=O)[C@@H](NC(=O)c2ccnn2C)C2CCC(C)(C)CC2)cc1 [Example 238, N-[(1S)-1-(4,4-dimethylcyclohexyl)-2-[4-(3,5-dimethyl-1H-pyrazol-4-yl)anilino]-2-oxo-ethyl]-2-methyl-pyrazole-3-carboxamide]
100 to 1000 nM	Cc1n[nH]c(C)c1-c1ccc(NC(=O)[C@@H](NC(=O)c2ccnn2C)[C@@H]2CCCC3(CC3)C2)cc1 [Example 241, N-[(1S)-2-[4-(3,5-dimethyl-1H-pyrazol-4-yl)anilino]-2-oxo-1-[(7R)-spiro[2.5]octan-7-yl]ethyl]-2-methyl-pyrazole-3-carboxamide]
